Assay results: patent US5830885A, “Antiproliferative vitamin D3 hybrids” (The Johns Hopkins University, priority 1996, dated 1998)
Where “and” joins values, the source holds several entries; their conditions need not be identical. Identical values can stand only once. Entries after “also recorded” stand apart in the source; their conditions may differ. Values belong to the compound of their own block, whether it stands above or below them.

Legend:
calcium channels = assay: Calcium channel opening assay; type: cell-based; details: Bay K 1 μM, in the experiments of each compound's line
[1] = system: murine keratinocyte cells (cell line PE); assay: Growth inhibition of PE keratinocytes (MTT assay); type: cell-based; details: for inhibition of proliferation of PE cells: FIG. 7
Protocol: (§1) The compounds were tested for growth inhibition of murine keratinocyte cells (cell line PE) and for the inhibition of TPA-induced ornithine decarboxylase (ODC) activity.
The PE cell line culture medium used in the tests consisted of Eagle's minimal essential medium without calcium chloride supplemented with 8% chelexed fetal calf serum and 1% antibiotic-antimycotic and the addition of CaCl2 to 0.05 mM Ca^++.
PE cells were seeded at a density of 5,000 cells/well in 50 μl medium into 96-well microtiter plates. […] The plates were fed once at 48 hours, with the re addition of the vitamin D3 analogues at this time. At 24 hour intervals following the initial treatment of the cells with compounds, 0.1 mg ([…] of a 2 mg/ml solution) of MTT was added to the plates. After 4 hours, the MTT was removed and DMSO added to dissolve the blue formazan dye. Using a microtiter plate reader, the A505 was then determined and cell number calculated from blank-subtracted absorbance values.

calf thymus VDR = target: T1, calf thymus VDR (Bos taurus, UniProt Q28037); assay: VDR binding assay, displacement of [^3 H]-1,25(OH)2 D3 from VDR; details: for Amount Bound (amount that results in 50% displacement of [^3 H]-1,25(OH)2 D3 from VDR): Table 6, calf thymus VDR; for times less strongly bound to VDR than 1,25(OH)2 D3: relative to 1,25(OH)2 D3; for VDR binding affinity relative to that of calcitriol / binding to the 1,25(OH)2-vitamin D3 receptor (VDR), % of calcitriol's binding: relative to calcitriol
T1 construct: from the calf thymus VDR; from tissue; host or cells: calf thymus
T1 sequence (Q28037 1-426): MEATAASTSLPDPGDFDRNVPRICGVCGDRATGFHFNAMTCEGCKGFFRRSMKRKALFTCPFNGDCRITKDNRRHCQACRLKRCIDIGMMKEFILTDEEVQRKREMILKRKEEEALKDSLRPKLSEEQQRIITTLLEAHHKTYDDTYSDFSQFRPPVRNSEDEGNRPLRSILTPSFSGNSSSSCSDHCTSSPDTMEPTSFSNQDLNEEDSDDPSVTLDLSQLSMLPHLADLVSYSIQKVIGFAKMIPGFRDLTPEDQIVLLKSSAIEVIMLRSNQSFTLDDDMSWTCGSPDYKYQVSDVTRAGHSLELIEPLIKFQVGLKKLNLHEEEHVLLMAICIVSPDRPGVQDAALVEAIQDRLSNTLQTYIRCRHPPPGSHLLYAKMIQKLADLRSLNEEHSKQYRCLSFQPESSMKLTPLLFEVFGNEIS
Protocol: The VDR binding assay was performed according to the procedure of Reinhardt, T. A., Horst, R. L., Orf, J. W., Hollis, B. W., J. Clin. Endocrin. Metab., 58: 91-98 (1984), the entire contents of which are hereby incorporated herein by reference.

HL-60 cells = assay: Growth inhibition of HL-60 cells; type: cell-based; details: FIG. 8; YA and YB 10^-7 M, others 10^-6 M
From the text: YA and YB were at concentrations of 10^-7 M; the other compounds were at concentrations of 10^-6 M.

[2] = system: ornithine decarboxylase (ODC); assay: Inhibition of TPA-induced ornithine decarboxylase (ODC) activity in PE cells; type: cell-based, murine; details: 1 μM, 15 minutes pretreatment, p<0.001
Protocol: as §1
The cell line PE was derived from a papilloma induced in female SENCAR mice by a standard skin initiation/promotion protocol (Carcinogenesis, 7:949-958 (1986), the entire contents of which are hereby incorporated by reference) and was chosen for its particular sensitivity to the induction of ornithine decarboxylase (ODC) activity by the extensively characterized tumor promoter TPA. The PE cell line culture medium used in the tests consisted of Eagle's minimal essential medium without calcium chloride supplemented with 8% chelexed fetal calf serum and 1% antibiotic-antimycotic and the addition of CaCl2 to 0.05 mM Ca^++.
100 cm^2 dishes of PE cells were treated with vitamin D3 or analogues dissolved in DMSO by direct addition into the culture medium. Fifteen minutes later, the plates were treated with 100 ng/ml TPA dissolved in ethanol. […]
Cytosolic ODC activity was determined in triplicate by measuring the release of ^14 CO2 from L-[^14 C]ornithine using an Eppendorf microvessel assay as previously described (Cancer Res., 43:2555-2559 (1983), the entire contents of which are hereby incorporated by reference).

U 937 cancer cells [3] = assay: Induction of cell differentiation in U 937 cancer cells (Table 5); type: cell-based, human; details: at a concentration of 10^-8 M
U 937 cancer cells [4] = assay: Viability of U 937 cancer cells (Table 5); type: cell-based; details: Homo sapiens
[5] = system: ornithine decarboxylase (ODC); details: literature; cited from earlier work
[6] = in vivo; cited from earlier work
keratinocyte = assay: Dose-response effects on keratinocyte proliferation (FIGS. 3, 4, 9, 10); type: cell-based; details: cell numbers at 0 and 96 hours
Protocol: N0 represents the number of cells at zero hours and N1 represents the number of cells at 96 hours.

cell proliferation = assay: Anti-proliferative activity (summary statements); type: cell-based; details: compared with calcitriol or in general words
[7] = system: Human lymphoma cells U 937; details: relative to calcitriol = 1; cited from earlier work
[8] = system: Human lymphoma cells U 937; details: relative to calcitriol = 1; cited from earlier work; remark: listed apart in the source
Lewis rats = details: relative to calcitriol = 1; cited from earlier work
[9] = Solubility in organic solvents; type: physicochemical; details: methylene chloride, chloroform, methanol; for YA/YB also EtOAc, acetone
[10] = Crystallization behaviour; type: physicochemical

SMILES: COC(=O)C1=C(C)NC(C)=C([N+](=O)[O-])C1c1ccccc1C(F)(F)F (stereo not shown) [Bay K, reference compound]
- Average peak shift compared to control (calcium channels): 28.3 ± 5.6 mV and 29.0 ± 1.4 mV and 26.3 ± 4.5 mV and 27.9 ± 5.3 mV

SMILES: C=C1/C(=C\C=C2/CCC[C@]3(C)[C@@H]([C@H](C)CCCC(C)(C)O)CC[C@@H]23)C[C@@H](O)C[C@@H]1O [Calcitriol, 1α,25-dihydroxyvitamin D3, reference compound]
- growth inhibition of PE cells, comparison of potency ([1]; calcitriol vs 1-hydroxymethyl derivatives): equipotent at inhibiting growth of PE cells
- inhibition of TPA-induced ODC activity [2]: significantly inhibited the effects of TPA
- inhibition of TPA-induced ODC activity ([2]; listed as calcitriol): statistically significant reduction in TPA-induced ODC activity
- inducing cell differentiation (in words) (U 937 cancer cells [3]): effective in inducing cell differentiation
- viability at 0.1 µM (U 937 cancer cells [4]): 99%
- inhibition of TPA effects on ODC induction as well as TPA-stimulated tumor promotion [5]: shown to inhibit TPA effects on ODC induction

SMILES: C=C1/C(=C\C=C2/CCC[C@]3(C)[C@@H]([C@@H](C)CSc4cccc(C(C)(C)O)c4)CC[C@@H]23)C[C@@H](O)C[C@@H]1O [GS 1500]
- serum half-life [6]: very short serum half-life

SMILES: C=C1/C(=C\C=C2/CCC[C@]3(C)[C@@H]([C@@H](C)OCCCC(O)(CC)CC)CC[C@@H]23)C[C@H](O)C[C@H]1CCF [RHH 045 B, 1α- and 1β-(2-Fluoroethyl)-25-hydroxyvitamin D3 Homologs]
- VDR binding affinity relative to that of calcitriol (calf thymus VDR): ~ 10^-3
- effect on keratinocyte proliferation (keratinocyte): far more effective in inhibiting cell proliferation
- anti-proliferative activity (cell proliferation): comparable to that of calcitriol

SMILES: C=C1/C(=C\C=C2/CCC[C@]3(C)C([C@H](C)CC#CC(C)(C)O)=CC[C@@H]23)C[C@@H](O)C[C@@H]1CO [JK III 7-1]
- effect on keratinocyte proliferation (keratinocyte): appears ineffective in reducing cell proliferation

SMILES: C=C1/C(=C\C=C2/CCC[C@]3(C)[C@@H]([C@H](C)/C=C/C=C/C(O)(CC)CC)CC[C@@H]23)C[C@H](O)C[C@H]1CO [MCW 068-Y-EE]
- VDR binding affinity relative to that of calcitriol (calf thymus VDR): ~ 10^-3
- effect on keratinocyte proliferation (keratinocyte): much greater anti proliferative activity than MCW 068-Y-ED
- anti-proliferative activity (cell proliferation): comparable to that of calcitriol

SMILES: C=C1/C(=C\C=C2/CCC[C@]3(C)C([C@H](C)CC#CC(C)(C)O)=CC[C@@H]23)C[C@H](O)C[C@H]1CO [JK III 7-2]
- VDR binding affinity relative to that of calcitriol (calf thymus VDR): ~ 10^-3
- effect on keratinocyte proliferation (keratinocyte): equal to or greater than calcitriol
- anti-proliferative activity (cell proliferation): comparable to that of calcitriol

SMILES: C=C1/C(=C\C=C2/CCC[C@]3(C)[C@@H]([C@H](C)/C=C/[C@@H](O)C4CC4)CC[C@@H]23)C[C@@H](O)C[C@@H]1O [Mc-903 (Calcipotriol)]
- Relative Potency, Inhibition of Proliferation [7]: 1.3
- Relative Potency, Induction of Differentiation [8]: 1
- Relative Potency, Calcemic Effects (Lewis rats): < 0.01

SMILES: C=C1/C(=C\C=C2/CCC[C@]3(C)[C@@H]([C@H](C)CCCC(C)(C)O)CC[C@@H]23)C[C@@H](O)C[C@@H]1CO [(-)-2, 1α-hydroxymethyl-25-hydroxyvitamin D3]
- binding to the 1,25(OH)2-vitamin D3 receptor (VDR), % of calcitriol's binding (calf thymus VDR): ≤ 2%
- solubility in organic solvents [9]: unexpectedly poor solubility; also recorded: only sparingly soluble
- anti-proliferative activity (cell proliferation): did not change the anti- proliferative or cell growth inhibitory activity
- ease of crystallization [10]: easily crystallized

SMILES: C=C1/C(=C\C=C2/CCC[C@]3(C)[C@@H]([C@H](C)CCCC(C)(C)O)CC[C@@H]23)C[C@H](O)C[C@H]1CO [(+)-3, 1β-hydroxymethyl-3β-norhydroxy-3α, 25-dihydroxyvitamin D3]
- binding to the 1,25(OH)2-vitamin D3 receptor (VDR), % of calcitriol's binding (calf thymus VDR): ≤ 2%
- anti-proliferative activity (cell proliferation): did not change the anti- proliferative or cell growth inhibitory activity
- ease of crystallization [10]: very difficult to crystallize

SMILES: C=C1/C(=C\C=C2/CCC[C@]3(C)[C@@H]([C@H](C)/C=C/C=C/C(O)(CC)CC)CC[C@@H]23)C[C@@H](O)C[C@@H]1O [EB1089]
- Relative Potency, Inhibition of Proliferation [7]: 68
- Relative Potency, Induction of Differentiation [8]: 67
- Relative Potency, Calcemic Effects (Lewis rats): 0.4

Further lines, with some results ahead:

- Amount Bound (amount that results in 50% displacement of [^3 H]-1,25(OH)2 D3 from VDR) (calf thymus VDR): 22.5 ng
- times less strongly bound to VDR than 1,25(OH)2 D3 (calf thymus VDR): about 1500 times
- VDR binding affinity relative to that of calcitriol (calf thymus VDR): less than 10^-3
SMILES: C=C1/C(=C\C=C2/CCC[C@]3(C)[C@@H]([C@@H](C)COCCCC(C)(C)O)CC[C@@H]23)C[C@H](O)C[C@H]1CO [JK 276-2]
- inhibition of proliferation of PE cells [1]: inhibited proliferation of PE cells; also recorded: at much lower concentrations than their corresponding 1α,3β-stereoisomers
- inhibition of growth of HL-60 cells (HL-60 cells): even more effective than YB in inhibiting growth

- Amount Bound (amount that results in 50% displacement of [^3 H]-1,25(OH)2 D3 from VDR) (calf thymus VDR): 1450 ng
- VDR binding affinity relative to that of calcitriol (calf thymus VDR): less than 10^-3
SMILES: C=C1/C(=C\C=C2/CCC[C@]3(C)[C@@H]([C@@H](C)CSc4cccc(C(C)(C)O)c4)CC[C@@H]23)C[C@@H](O)C[C@@H]1CO [JK 277-1]
- inhibition of proliferation of PE cells [1]: inhibited proliferation of PE cells
- inhibition of growth of HL-60 cells (HL-60 cells): more modest effect

- Amount Bound (amount that results in 50% displacement of [^3 H]-1,25(OH)2 D3 from VDR) (calf thymus VDR): 1650 ng
- VDR binding affinity relative to that of calcitriol (calf thymus VDR): less than 10^-3
SMILES: C=C1/C(=C\C=C2/CCC[C@]3(C)[C@@H]([C@@H](C)COCCCC(C)(C)O)CC[C@@H]23)C[C@@H](O)C[C@@H]1CO [JK 276-1]
- inhibition of proliferation of PE cells [1]: inhibited proliferation of PE cells
- inhibition of growth of HL-60 cells (HL-60 cells): more modest effect

- Amount Bound (amount that results in 50% displacement of [^3 H]-1,25(OH)2 D3 from VDR) (calf thymus VDR): 40 ng
- times less strongly bound to VDR than 1,25(OH)2 D3 (calf thymus VDR): ~3750 times
- VDR binding affinity relative to that of calcitriol (calf thymus VDR): less than 10^-3
SMILES: C=C1/C(=C\C=C2/CCC[C@]3(C)[C@@H]([C@@H](C)CSc4cccc(C(C)(C)O)c4)CC[C@@H]23)C[C@H](O)C[C@H]1CO [JK 277-2]
- inhibition of proliferation of PE cells [1]: inhibited proliferation of PE cells; also recorded: at much lower concentrations than their corresponding 1α,3β-stereoisomers
- inhibition of growth of HL-60 cells (HL-60 cells): even more effective than YB in inhibiting growth
